# From US12208108B2, “Drug targets of delayed aging and human brain diseases” (Texas Tech University System, priority 2016, dated 2025)
# How the values were obtained:
# [1] = system: mutant APPSwe/Ind mouse neuroblastoma (N2a) cells; test: Co-immunoprecipitation and immunoblotting of mutant APPSwe/Ind cells; type: cell-based; conditions: DDQ 250 nM 24 hrs vs mutant APPSwe/Ind cells untreated with DDQ
# Protocol: Co-immunoprecipitation and immunoblotting analysis of mutant APPSwe/Ind cells treated with DDQ. To determine whether DDQ reduces the interaction of Aβ with Drp1 in mutant APPSwe/Ind cells, the inventors used mutant APPSwe/Ind cDNA construct transfected into mouse neuroblastoma (N2a) cells and further cells were treated with DDQ. The inventors performed immunoprecipitation with Aβ (6E10) antibody and immunoblotting analysis with 6E10 and the inventors also performed co-immunoprecipitation analysis with Aβ (6E10) antibody and immunoblotting analysis with Drp1 antibody. […] These findings further confirm that DDQ reduces full-length APP and 4 kDa Aβ and reduces interaction between Drp1 and Aβ.
# (§1) Mutant APPSwe/Ind cells: The inventors purchased mutant APPSwe cDNA clone (pCAX-APPSwe/Ind) from Addgene—https://www.addgene.org and verified expression of mutant APP APPSwe/Ind cDNA and further sub-cloned into a mammalian expression vector (Arubala P. Reddy—unpublished observations). The inventors transfected mutant APPSwe/Ind cDNA into mouse neuroblastoma (N2a) cells for 24 hrs and after transfection, cells were treated with DDQ (250 nM) for 24 hrs. The inventors harvested mutant APPSwe/Ind cells treated and untreated with DDQ and prepared protein lysates and performed co-immunoprecipitation using Aβ (6E10) antibody and conducted immunoblotting analysis with 6E10 and Drp1 antibodies.
# The inventors performed co-immunoprecipitation (co-IP) assays using the Dynabeads Kit for Immunoprecipitation (Invitrogen). Briefly, 50 μL of Dynabeads containing protein G was incubated with 10 μg 6E10 or 10 μg of the Drp1 antibodies (both mono- and polyclonal antibodies; Santa Cruz), with rotation, for 1 h at room temperature. The inventors used all the reagents and buffers provided in the kit. Details of antibodies used for co-IP and western blotting are given Table 5. The Dynabeads-Aβ complex was washed three times with a washing buffer and was then incubated overnight with 400 μg of protein at 4° C., with rotation. […]
# SHSY5Y cells [2] = test: Immunofluorescence analysis of Drp1, synaptophysin and PSD95; type: cell-based, Human
# Protocol: Immunofluorescence analysis of Drp1, synaptophysin and PSD95. To determine the effect of Aβ and DDQ on Drp1, synaptophysin and PSD95 levels and localizations, immunofluorescence analysis was performed in cells treated as shown in FIG. 7.
# Immunofluorescence analysis. To study immune-reactivity of proteins of interest, cells were grown on coverslips using regular cell culture medium and treated as shown in strategy FIG. 3 and performed immunofluorescence analysis using the antibodies in these treated and untreated cells as described by Manzcak et al. Cells were washed with warm PBS, fixed in freshly prepared 4% paraformaldehyde in PBS for 10 min, and then washed with PBS and permeabilized with 0.1% Triton-X100 in PBS. They were blocked with 1% blocking solution (Invitrogen) for 1 hr at room temperature. All neurons were incubated overnight with primary antibodies. The neurons were incubated with appropriate secondary antibodies. The cells were washed neurons 3 times with PBS, and slides were mounted. Photographs were taken with a multiphoton laser scanning microscope system (ZeissMeta LSM510). To quantify the immunoreactivity of proteins of interest, for each treatment 10-15 photographs were taken at ×20 magnification.
# mutant APPSwe/Ind cells = test: Sandwich ELISA of Aβ40 and Aβ42; type: cell-based, mouse; conditions: DDQ treated vs DDQ untreated mutant APPSwe/Ind cells, protein lysates
# Text: FIGS. 9A and 9B show sandwich ELISA analysis of Aβ40 and 42 in mutant APPSwe/Ind cells treated and untreated with DDQ. The inventors performed sandwich ELISA using protein lysates mutant APP cells treated and untreated with DDQ.
# DDQ reduces soluble Aβ42 in mutant APPSwe/Ind cells treated with DDQ. To determine whether DDQ reduces Aβ levels, the inventors performed sandwich ELISA using protein lysates of mutant APPSwe/Ind cells treated with DDQ. […] These observations indicate that DDQ reduces Aβ42 levels in mutant APPSwe/Ind cells.
# as §1
# SHSY5Y cells [3] = test: Lipid peroxidation assay (HNE); type: cell-based, Human
# Protocol: Lipid peroxidation assay. Lipid peroxidates are unstable indicators of oxidative stress in neurons. 4-hydroxy-2-nonenol (HNE) is the final product of lipid peroxidation that was measured in the cell lysates from SHSY5Y cells of control and experimental treatments (n=4), using an HNE-His ELISA Kit (Cell BioLabs, Inc., San Diego, Calif.) as described in Manczak et al..
# SHSY5Y cells [4] = test: Cell viability test (MTT assay); type: cell-based, Human
# Protocol: Cell viability test (MTT assay). Mitochondrial respiration, an indicator of cell viability, was assessed in the SHSY5Y cells from control and experimental treatments (n=4), using the mitochondrial-dependent reduction of 3-(4,5-dimethyl-thiazol-2-yl)-2,5-diphenyl-tetrazolium bromide (MTT) to formazan as described in Manczak et al..
# [5] = Aβ + DDQ (Aβ1-42 6 hrs, then DDQ 24 hrs) vs Aβ treated cells
# [6] = DDQ 250 nM 24 hrs vs untreated cells
# [7] = DDQ + Aβ (DDQ 24 hrs, then Aβ1-42 6 hrs) vs Aβ treated cells
compound,measurement,setting,value
"CCOP(=O)(OCC)C(NCCc1ccc(O)c(O)c1)c1ccnc2ccccc12 (stereo not shown) [DDQ, diethyl(3,4-dihydroxyphenethylamine)(quinolin-4-yl)methylphosphonate]","4 kDa Aβ levels (IP 6E10, WB 6E10)",[1],reduced levels
same,"Drp1 levels (co-IP 6E10, WB Drp1)",[1],reduced levels
same,"full-length APP levels (IP 6E10, WB 6E10)",[1],reduced levels
same,Drp1 levels (immunofluorescence),SHSY5Y cells [2]; [5],Significantly reduced levels
same,PSD95 levels (immunofluorescence),SHSY5Y cells [2]; [5],increased
same,synaptophysin levels (immunofluorescence),SHSY5Y cells [2]; [5],increased
same,Drp1 levels (immunofluorescence),SHSY5Y cells [2]; [6],"decreased Drp1 levels were found in DDQ treated cells relative to untreated cells, but this was not significant"
same,Drp1 levels (immunofluorescence),SHSY5Y cells [2]; [7],Significantly reduced levels
same,PSD95 levels (immunofluorescence),SHSY5Y cells [2]; [7],increased
same,synaptophysin levels (immunofluorescence),SHSY5Y cells [2]; [7],increased
same,Aβ40 levels,mutant APPSwe/Ind cells,significantly increased
same,Aβ42 levels,mutant APPSwe/Ind cells,significantly decreased levels
same,lipid peroxidation (4-hydroxy-nonenol) levels,"SHSY5Y cells [3]; Aβ + DDQ (Aβ1-42 6 hrs, then DDQ 24 hrs) vs cells incubated with Aβ alone",significantly reduced levels
same,lipid peroxidation (4-hydroxy-nonenol) levels,SHSY5Y cells [3]; [6],significantly decreased levels
same,lipid peroxidation (4-hydroxy-nonenol) levels,"SHSY5Y cells [3]; DDQ + Aβ (DDQ 24 hrs, then Aβ1-42 6 hrs) vs cells incubated with Aβ alone",significantly reduced levels
same,Cell viability,"SHSY5Y cells [4]; Aβ + DDQ (Aβ1-42 20 μM 6 hrs, then DDQ 24 hrs) vs untreated cells",unchanged
same,Cell viability,SHSY5Y cells [4]; [6],significantly increased
same,Cell viability,"SHSY5Y cells [4]; DDQ + Aβ (DDQ 24 hrs, then Aβ1-42 6 hrs) vs Aβ incubated cells",Significantly increased
same,Cell viability,"SHSY5Y cells [4]; DDQ + Aβ (DDQ 24 hrs, then Aβ1-42 6 hrs) vs untreated cells",unchanged
